Test results: PubChem BioAssay (NCI)
Several values for one entry are separate records, joined by “and”; a condition that tells them apart may be missing. Equal entries are not always repeated.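 Assay format: 96-well plates, 48-hour exposure. The concentration for 50% growth inhibition is given as GI50. TGI: total growth inhibition.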

How the values were obtained:
Assay in all cases: inhibition of tumour cell growth, NCI panel, 48 h
[1] = test system: NCI-H226 lung
[2] = test system: M14 melanoma
[3] = test system: SN12C renal
[4] = test system: HOP-92 NSCLC
[5] = test system: SR leukemia
[6] = test system: SK-MEL-2 melanoma
[7] = test system: HOP-62 NSCLC
[8] = test system: OVCAR-5 ovarian
[9] = test system: OVCAR-4 ovarian
[10] = test system: DU-145 prostate

| SMILES | GI50 [1] | TGI [1] | GI50 [2] | TGI [2] | GI50 [3] | TGI [3] | GI50 [4] | TGI [4] | GI50 [5] | TGI [5] | GI50 [6] | TGI [6] | GI50 [7] | TGI [7] | GI50 [8] | TGI [8] | GI50 [9] | TGI [9] | GI50 [10] | TGI [10] |
| --- | --- | --- | --- | --- | --- | --- | --- | --- | --- | --- | --- | --- | --- | --- | --- | --- | --- | --- | --- | --- |
| C=CCNCCCN1C(=O)c2ccc3c4c(ccc(c24)C1=O)C(=O)N(CCCNCC=C)C3=O | 292 nM | 987 nM | 470 nM | 1660 nM | 399 nM | 1780 nM | 1560 nM | 7830 nM | 407 nM | 2080 nM | 364 nM | 1700 nM | 372 nM | 1720 nM | 596 nM | 4940 nM | 143 nM | 307 nM | 311 nM | 857 nM |
| COc1ccc(C(=O)/C=C/c2c(C(F)(F)F)nc3sccn23)cc1OC | 6950 nM | > 100000 nM | 2670 nM | > 100000 nM | 2980 nM | > 100000 nM | 5870 nM | 59600 nM | 493 nM | > 100000 nM | 4080 nM | 92500 nM | 6000 nM | 43000 nM | 4180 nM | 39100 nM | 4080 nM | > 100000 nM | 1640 nM | 5000 nM |
| C=C(C)C(=O)OC1CC2=CC(CC3(C)OC3C3OC(=O)C(=C)C13)OC2=O (stereo not given) |  | 39000 nM |  | 15400 nM |  | 26800 nM |  | 7350 nM |  | 15700 nM |  | 26400 nM |  | 41900 nM |  | 34600 nM |  | 29900 nM |  | 51800 nM |
| O=C1/C(=C/c2ccccc2F)CNC/C1=C\c1ccccc1F | 3150 nM and 1460 nM | 10700 nM and 3910 nM | 1160 nM and 1200 nM | 3730 nM and 2840 nM | 837 nM and 783 nM | 2050 nM and 2810 nM | 2820 nM and 1920 nM | 7370 nM and 4710 nM | 77.2 nM and 245 nM | 361 nM and 813 nM | 2530 nM and 2770 nM | 6180 nM and 6460 nM | 530 nM and 330 nM | 2650 nM and 1010 nM | 935 nM and 1910 nM | 2340 nM and 3960 nM | 596 nM and 385 nM | 2980 nM and 1810 nM | 642 nM and 710 nM | 2050 nM and 2010 nM |
| COc1cc(C(O)c2nc3ccccc3s2)cc(OC)c1OC (stereo not given) | 47100 nM | > 100000 nM | 85300 nM | > 100000 nM | > 100000 nM | > 100000 nM | 1150 nM | 31200 nM | 9010 nM | > 100000 nM | > 100000 nM | > 100000 nM | 43800 nM | > 100000 nM | > 100000 nM | > 100000 nM | 30900 nM | > 100000 nM | > 100000 nM | > 100000 nM |
| C[C@H]1[C@H](C)CC[C@]2(C(=O)N3CCN(C)CC3)CC[C@]3(C)C(=CC[C@@H]4[C@@]5(C)C/C(=C/c6cccnc6)C(=O)C(C)(C)[C@@H]5CC[C@]43C)[C@H]12 | 1810 nM | 3770 nM | 802 nM | 2300 nM | 1150 nM | 2650 nM | 446 nM | 1840 nM | 1370 nM | > 100000 nM | 1530 nM | 3080 nM | 1580 nM | 3110 nM | 1550 nM | 2910 nM | 1070 nM | 2480 nM | 1290 nM | 2650 nM |
| NC(=O)c1oc([N+](=O)[O-])c(-c2ccccc2)c1-c1ccccc1 |  | 28100 nM |  | 32500 nM |  | 5090 nM |  | 42000 nM |  | 34200 nM |  | 36300 nM |  | > 100000 nM |  | 63200 nM |  | 28500 nM |  | 93400 nM |
